Measurements taken from US7691417B2, “Tumor and mutation suppressing plant extract” (Clemson University Research Foundation, priority 2004, dated 2010).

Experiments:
[1] = test system: Salmonella typhimurium (Strain TA 100); experiment: Ames Salmonella/microsome mutagenic test with human S9 mix and mutagen 2-AA; type: cell-based
Description: Mutagenicity is evaluated following the Ames Salmonella mutagenic assay, a bacterial reverse mutation test using a histidine-dependent […] mutant of Salmonella typhimurium lacking both normal DNA repair mechanisms and the ability to grow on a histidine-free medium. See, D. R. Maron and B. Ames. Mutation Research. 1980. 113:173-215, incorporated herein by reference in its entirety. As one skilled in the art understands, the test assumes that DNA-altering chemicals cause mutations and that mutagenicity is closely associated with carcinogenicity. Induced mutations are estimated by the number of bacteria capable of growing on a histidine-free medium. […]
Colonies chosen to generate overnight cultures were grown in 5 ml nutrient broth #2 (Cat No. CM 0067; Oxid Products; Basingstone, Hampshire, UK) at […] to a density of 1-2×10^9 per ml (absorbance of 0.96±0.2 at 600 nm). […]
Test compounds with the S9 mix were incubated for 30 minutes at 37° C., filter sterilized (0.2 μm Acrodisc® V45W500; Pall Galman, Ann Arbor, Mich.), and divided into two 1.5 ml duplicate aliquots. […] Each aliquot was vortexed briefly and immediately poured on Petri dishes containing the minimal glucose agar (MGA) which were allowed to solidify, then inverted and incubated at 37° C. in the dark for 48 hours, after which revertant colonies on control and test plates were counted.

[2] = test system: tumors induced by A. tumefaciens on potato discs; experiment: Potato disc tumor induction assay (Agrobacterium tumefaciens-induced tumors); type: cell-based, Solanium tuberosum L.
Description: Tumor suppression is evaluated following the well-known Agrobacterium tumor induction assay procedure. The assay depends on the unique property of Agrobacterium tumefaciens of inserting a portion of its tumor-inducing (Ti) plasmid into the chromosomal DNA of a wounded plant, causing tumor-like growths on the plant, a condition commonly known to those skilled in the art as Crown Gall disease. Antitumor potential is measured by tumor suppression on aseptic potato discs treated with the plant extract. See A. B. Galsky, et al. J. Nat. Cancer Inst. 1981. 67:689-692, incorporated herein by reference, in its entirety. Antitumor activity detected by the Agrobacterium assay is correlated with suppression of tumors in animals; thus, plant extracts that suppress Agrobacterium-induced tumor formation have significant potential as human anticarcinogens.
Antitumor effects of extracts were tested using the Potato Tumor Induction method of McLaughlin's laboratories. 1 A. tumefaciens was cultured in Difco Yeast Extract Medium for a period of 48-72 hours at […] for use in the assay. […]

Row | Compound | revertant colonies formed in the presence of 2-AA ([1]; 2-AA alone (DMSO + S9), no extract) | colonies formed with 2-AA relative to the control ([1]; 991.6 versus control 48.2) | % INHIBITION (tumor) ([2]; parallel study, dilution 1:10,000, Table 2) [%] | tumor inhibition ([2]; positive inhibitory control of the Table 1 study, camptothecin stock 100 μg/ml) [%]
1 | Nc1ccc2cc3ccccc3cc2c1 [2-AA, 2-aminianthuracene] | 991.6 | approximately 20 fold | – | –
2 | CC[C@@]1(O)C(=O)OCc2c1cc1n(c2=O)Cc2cc3ccccc3nc2-1 [camptothecin, Camptothecin] | – | – | 100 | 98.2
